Consider 26 compounds from PubChem BioAssay (NCI).

Common to all, as to test: NCI tumour cell line growth inhibition, 48 h
For test [1], the system named is HOP-62 NSCLC.
For test [2], the system named is UO-31 renal.
In test [3] the test system is A498 renal.
Test [4] relates to TK-10 renal.
Test [5] has as its system SK-MEL-28 melanoma.
Test [6] deals with MDA-N.
The test system of test [7] is SW-620 colon.
The test system of test [8] is EKVX NSCLC.
Test [9] relates to SF-295 CNS.
For test [10], the system named is NCI/ADR-RES ovarian.
The subject of test [11] is LOX IMVI melanoma.

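Following 48 hours of exposure in 96-well plates, responses at five concentrations were used to interpolate endpoints linearly. TGI is the concentration that stops growth completely.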 Some results are limits rather than exact numbers.

With `Cc1cc(C)c2c(=O)n(CC(O)CN3CCN(c4ncccn4)CC3)sc2n1` (stereo not given), the TGI in [1] is 42 µM; in test [2] it was 30 µM; in test [3] it was 31.1 µM; in test [4], 32.1 µM; in [5], 36.6 µM; in test [6], 29.5 µM. Besides, the TGI in test [7] was 60.7 µM; in [8] it was 29.5 µM; in test [9] it was over 100 µM; in test [10] it was 78 µM; in test [11], 33.7 µM.

Take `Cc1cc(S(=O)(=O)Nc2nc(N)n(-c3ccccc3)n2)c(S)cc1Cl`: the TGI in test [1], in [2], in [3], in [4], in test [5] and in [6] was over 100 µM throughout. The TGI in [7], in test [8], in test [10] and in test [11] was over 100 µM throughout.

Consider `O=C(NCCc1ccc(F)cc1)c1cc(/C=C/c2cc(O)ccc2O)ccc1O`, for which the TGI in test [1] is 14.8 µM; in [2], 3.07 µM; in test [3] it was 14.1 µM; in [4] it was 5.64 µM; in [5], over 25.3 µM; in test [6], 9.59 µM. The TGI in test [7] was over 100 µM; in test [8], 6.38 µM; in test [9], 36.2 µM; in test [10] it was 10.7 µM; in [11], 14 µM.

For `CCCCc1ccc(Nc2nc(N)c3[nH]cnc3n2)cc1`, the TGI was 27.1 µM in test [2]; 24.2 µM in test [3]; 43.2 µM in [4]; 44.1 µM in test [5]; 32.6 µM in test [6]; 63.6 µM in [7]. Moreover, the TGI in test [8] came out at 45.4 µM; in test [9], 68.8 µM; in [10], 37.2 µM; in [11] it was 33.3 µM.

Take `Nc1c(Cl)ncnc1NCC1(CO)CCC1`: the TGI in [1], in test [2], in [3], in test [4], in [5] and in test [6] was over 100 µM in each case. For the same compound, the TGI in test [7], in [8], in test [9], in [10] and in test [11] was over 100 µM throughout.

Consider `C=C1CN(C(=O)c2cc3cc(OC)c(OC)c(OC)c3[nH]2)c2cc([N+](=O)[O-])ccc21`, for which the TGI in [2], in [3], in [4], in [5], in test [6] and in test [7] was over 100 µM in each case. Besides, the TGI in [8], in [10] and in test [11] was over 100 µM in each case.

`O=c1[nH]/c(=C/c2cccs2)c(=O)[nH]/c1=C/c1ccc(OCc2ccccc2)cn1`: the TGI was 8.47 µM in test [1]; over 100 µM in test [2]; 1.15 µM in test [3]; 27.4 µM in test [4]; over 100 µM in [5]; 0.0766 µM in [6]. For the same compound, the TGI in test [7] is over 100 µM; in [8], over 100 µM; in test [9], 0.119 µM; in [10], 0.475 µM; in test [11], over 100 µM.

Turning to `CCOC(=O)C(C(N)=O)c1nc2cc([N+](=O)[O-])ccc2nc1/C=C(\O)c1ccc(C)cc1` (stereo not given), the TGI in test [1] is 33.9 µM; in [2], 49 µM; in test [3], over 67.7 µM; in test [4], 30.2 µM; in [5], over 71.1 µM; in [6], over 100 µM. Besides, the TGI in [7] is over 92.3 µM; in test [8] it was over 100 µM; in test [9], 43.6 µM; in test [10], 53 µM; in test [11], 57.4 µM.

As to `COC(=O)/C=C1\C(=O)N(C(C)=O)c2ccccc21`, the TGI stood at 30.2 µM in test [1]; 26.4 µM in [2]; 20 µM in [3]; 21.7 µM in [4]; 32.7 µM in test [5]; 25.2 µM in [6]. Further, the TGI in test [7] is over 100 µM; in test [8], 31 µM; in [9] it was over 55.2 µM; in test [10] it was 62.8 µM; in test [11], 18.7 µM.

With `COc1ccc(/C=C/C=C2C(=O)NC(=S)NC2=O)cc1`, the TGI in [1] is over 49.8 µM; in test [2], 19.9 µM; in test [3] it was over 100 µM; in test [4] it was 7.33 µM; in [5], 3.45 µM; in test [6], 15.2 µM. The TGI in test [7] was 3.37 µM; in test [8] it was 25.7 µM; in test [9], 29.9 µM; in test [10], 12.3 µM; in test [11], 3.97 µM.

As for `CN(C)c1ccc(C(=C2C=CC(=[N+](C)C)C=C2)c2c(O)c(S(=O)(=O)[O-])cc3cc(S(=O)(=O)O)ccc23)cc1`, the TGI in test [1], in test [2], in test [3], in test [4], in test [5] and in test [6] was over 100 µM throughout. Further, the TGI in [7], in test [8], in test [9], in [10] and in test [11] was over 100 µM in each case.

Consider `O=C(O)CC(Cc1ccccc1)C(=O)O` (stereo not given), for which the TGI in [1], in test [2], in [3], in test [4], in test [5] and in test [6] was over 100 µM throughout. Further, the TGI in [7], in test [8], in test [9], in [10] and in test [11] was over 100 µM each time.

For the compound `NC1=CN2c3ccccc3N(CC(=O)N3CCOCC3)C2C=C1` (stereo not given), the TGI in test [1], in test [2], in [3], in test [4], in test [5] and in [6] was over 100 µM throughout. The TGI in [7], in test [8], in [9], in test [10] and in [11] was over 100 µM each time.

With `CS(=O)(=O)c1nc(-c2cc3c(c(S(C)(=O)=O)n2)CCC3)cc2c1CCC2`, the TGI in [1], in test [2], in [3], in test [4], in [5] and in test [6] was over 100 µM in each case. Further, the TGI in test [7], in [8], in [9], in test [10] and in [11] was over 100 µM throughout.

With `Cc1ccc(N=c2oc3c(ccc4ccccc43)nc2Nc2ccc(C)cc2)cc1`, the TGI in [1], in test [2], in [3], in test [4], in [5] and in test [6] was over 100 µM throughout. For the same compound, the TGI in test [7], in test [8], in test [9], in test [10] and in test [11] was over 100 µM throughout.

`Nc1c2c(nc3ccccc13)-c1ccccc1CCC2`: the TGI in [1] is 22.3 µM; in test [2], 22.3 µM; in test [3] it was 21.4 µM; in [4], 25.2 µM; in [5], 27.3 µM; in [6] it was 25.9 µM. The TGI came to 26.2 µM in [7]; 44.8 µM in [8]; 19.1 µM in test [9]; 34.3 µM in test [10]; 25.3 µM in test [11].

On to `CCCCOP(=O)(OCCCC)C(NS(=O)(=O)c1ccccc1)(C(=O)OCC)C(F)(F)F` (stereo not given), for which the TGI is 61.4 µM in test [1]; over 100 µM in test [2]; 76.1 µM in test [3]; 87.6 µM in test [4]; 78.8 µM in test [5]; over 100 µM in test [6]. Further, the TGI in [8] is over 100 µM; in test [9], over 100 µM; in test [10], 64.6 µM; in [11], 96.9 µM.

On to `COc1cc2[nH]c(=O)[nH]c2c2c(C)c[nH]c12`, for which the TGI in test [1], in test [2], in test [3], in test [4], in test [5] and in [6] was over 100 µM throughout. Besides, the TGI in [7], in [8], in test [9], in test [10] and in test [11] was over 100 µM in each case.

`COC(CO[Si](C)(C)N[Si](C)(C)OCC(OC)c1ccccc1)c1ccccc1` (stereo not given): the TGI in test [1], in test [2], in test [3], in [4], in test [5] and in [6] was over 100 µM in each case. The TGI in test [7], in test [8], in test [9], in test [10] and in test [11] was over 100 µM in each case.

On to `CO/C=C(/C(=O)OC)c1ccccc1[C@H]1C[C@@H]1c1ccc(OC)cc1`, for which the TGI in [1] is 98 µM; in test [2] it was over 100 µM; in test [3], over 100 µM; in test [4], over 100 µM; in [5] it was 52.2 µM; in test [6], 56.7 µM. Besides, the TGI in [8] is 50.2 µM; in test [9] it was 46.3 µM; in test [10] it was 52.6 µM.

Regarding `O=C1N2CCN=C2c2ccccc2C1(O)c1ccccc1` (stereo not given), the TGI in test [1], in [2], in test [3], in test [4], in test [5] and in test [6] was over 100 µM throughout. The TGI in test [7], in test [8], in test [9], in test [10] and in test [11] was over 100 µM each time.

As to `CSc1nc(NC2CC2)c2c(n1)Sc1nc3ccccc3n1N=C2`, the TGI in test [1] was 39.6 µM; in [2], 44.4 µM; in test [3], 60.8 µM; in test [4], 62.4 µM; in test [5], over 100 µM; in test [6], over 100 µM. Moreover, the TGI is over 100 µM in test [7], 98.7 µM in test [8], 69.7 µM in [10] and over 100 µM in [11].

In the case of `CCOC(=O)n1c2ccccc2c2c(O)c(OC)c3c(c21)C(=O)NC3=O`, the TGI in test [1], in [2], in [3], in test [4], in test [5] and in [6] was over 100 µM each time. For the same compound, the TGI in test [7] was over 100 µM; in test [8] it was over 100 µM; in [9] it was over 100 µM; in [10] it was 81.3 µM; in [11], 38.9 µM.

In the case of `COc1cc(C(C)(C)C)c(OC(=O)/C=C/C(=O)O/C=C/[N+](=O)[O-])c(C(C)(C)C)c1`, the TGI is over 100 µM in [1]; 76.9 µM in [2]; 96.6 µM in [3]; over 100 µM in [4]; over 100 µM in test [6]; over 100 µM in [7]. Besides, the TGI was over 100 µM in [8], over 100 µM in test [9], 57.8 µM in [10] and 75.6 µM in [11].

Turning to `CCNc1nc2ccccc2nc1NCC`, the TGI in [2], in [3], in test [4], in [5], in [6] and in test [7] was over 100 µM in each case. For the same compound, the TGI in [8], in test [9], in [10] and in [11] was over 100 µM each time.

Consider `CCOC(=O)C(NC(=O)Nc1ccccc1)(Nc1cccc(Cl)c1)C(F)(F)F` (stereo not given), for which the TGI in [1], in test [2], in [3], in test [4], in test [5] and in test [6] was over 100 µM in each case. The TGI in test [7], in [8], in test [10] and in test [11] was over 100 µM each time.
